According to patent US11814375B2, “Heterocyclic compounds” (Hoffmann-La Roche Inc., priority 2019, dated 2023):

target: T1, MAGL (Homo sapiens, UniProt Q99685); assay: 2-AG assay: MAGL inhibitory activity by hydrolysis of 2-arachidonoylglycerol to arachidonic acid, followed by mass spectrometry; type: biochemical; settings: 8 μM 2-arachidonoylglycerol, 15 min preincubation and 30 min reaction at RT, arachidonic acid/d8-arachidonic acid ratio by MS
T1 sequence (Q99685 1-303): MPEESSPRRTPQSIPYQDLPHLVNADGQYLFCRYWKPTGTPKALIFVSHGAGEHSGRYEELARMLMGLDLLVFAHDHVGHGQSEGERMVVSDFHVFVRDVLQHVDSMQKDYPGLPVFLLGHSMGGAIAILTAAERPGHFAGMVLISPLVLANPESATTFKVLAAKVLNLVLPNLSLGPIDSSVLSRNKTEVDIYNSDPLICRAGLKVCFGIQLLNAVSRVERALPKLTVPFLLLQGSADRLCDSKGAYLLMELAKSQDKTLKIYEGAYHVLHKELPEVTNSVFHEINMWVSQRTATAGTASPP
Protocol: Compounds of formula (I) were profiled for MAGL inhibitory activity by determining the enzymatic activity by following the hydrolysis of the natural substrate 2-arachidonoylglycerol (2-AG) resulting in arachidonic acid, which can be followed by mass spectrometry. This assay is hereinafter abbreviated “2-AG assay”.
The 2-AG assay was carried out in 384 well assay plates (PP, Greiner Cat #784201) in a total volume of 20 μL. Compound dilutions were made in 100% DMSO (VWR Chemicals 23500.297) in a polypropylene plate in 3-fold dilution steps to give a final concentration range in the assay from 12.5 μM to […]. 0.25 μL compound dilutions (100% DMSO) were added to 9 μL MAGL in assay buffer (50 mM TRIS (GIBCO, 15567-027), 1 mM EDTA (Fluka, 03690-100 mL), 0.01% (v/v) Tween. After shaking, the plate was incubated for 15 min at RT. To start the reaction, 10 μL 2-arachidonoylglycerol in assay buffer was added. The final concentrations in the assay was […] and 8 μM 2-arachidonoylglyerol. After shaking and 30 min incubation at RT, the reaction was quenched by the addition of 40 μL of ACN containing 4 μM of d8-arachidonic acid. The amount of arachidonic acid was traced by an online SPE system (Agilent Rapidfire) coupled to a triple quadrupole mass spectrometer (Agilent 6460). A C18 SPE cartridge (G9205A) was used in an ACN/water liquid setup. The mass spectrometer was operated in negative electrospray mode following the mass transitions 303.1→259.1 for arachidonic acid and 311.1→267.0 for d8-arachidonic acid. The activity of the compounds was calculated based on the ratio of intensities [arachidonic acid/d8-arachidonic acid].

| IC50 [nM] | SMILES |
| --- | --- |
| 3.9 | Cc1cccc(Oc2ccc(C3CN(C(=O)N4CC[C@@H]5OCC(=O)N[C@@H]5C4)C3)cc2)n1 [Example 26, (+)-(4aR,8aS)-6-[3-[4-[(6-Methyl-2-pyridyl)oxy]phenyl]azetidine-1-carbonyl]-4,4a,5,7,8,8a-hexahydropyrido[4,3-b][1,4]oxazin-3-one] |
| 0.3 | O=C1CO[C@H]2CCN(C(=O)N3CC(c4ccc(Oc5cnccc5Cl)cc4)C3)C[C@H]2N1 [Example 27, (+)-(4aR,8aS)-6-[3-[4-[(4-chloro-3-pyridyl)oxy]phenyl]azetidine-1-carbonyl]-4,4a,5,7,8,8a-hexahydropyrido[4,3-b][1,4]oxazin-3-one] |
| 6.3 | O=C1CO[C@H]2CCN(C(=O)N3CC(c4ccc(Oc5ccncc5F)cc4)C3)C[C@H]2N1 [Example 28, (+)-(4aR,8aS)-6-[3-[4-[(3-Fluoro-4-pyridyl)oxy]phenyl]azetidine-1-carbonyl]-4,4a,5,7,8,8a-hexahydropyrido[4,3-b][1,4]oxazin-3-one] |
| 90.9 | CS(=O)(=O)c1nccc(Oc2ccc(C3CN(C(=O)N4CC[C@@H]5OCC(=O)N[C@@H]5C4)C3)cc2)n1 [Example 29, (+)-(4aR,8aS)-6-[3-[4-(2-Methylsulfonylpyrimidin-4-yl)oxyphenyl]azetidine-1-carbonyl]-4,4a,5,7,8,8a-hexahydropyrido[4,3-b][1,4]oxazin-3-one] |
| 0.7 | Cc1ccc(C)c(Oc2ccc(C3CN(C(=O)N4CC[C@@H]5OCC(=O)N[C@@H]5C4)C3)cc2)n1 [Example 30, (4aR,8aS)-6-[3-[4-[(3,6-Dimethyl-2-pyridyl)oxy]phenyl]azetidine-1-carbonyl]-4,4a,5,7,8,8a-hexahydropyrido[4,3-b][1,4]oxazin-3-one] |
| 91.9 | O=C1CO[C@H]2CCN(C(=O)N3CC(c4ccc(-c5ccn[nH]5)cc4)C3)C[C@H]2N1 [Example 31, (4aR,8aS)-6-[3-[4-(1H-Pyrazol-5-yl)phenyl]azetidine-1-carbonyl]-4,4a,5,7,8,8a-hexahydropyrido[4,3-b][1,4]oxazin-3-one] |
| 0.2 | CC(C)(C)Cn1nccc1-c1ccc(C2CN(C(=O)N3CC[C@@H]4OCC(=O)N[C@@H]4C3)C2)cc1 [Example 32a, (4aR,8aS)-6-[3-[4-[2-(2,2-Dimethylpropyl)pyrazol-3-yl]phenyl]azetidine-1-carbonyl]-4,4a,5,7,8,8a-hexahydropyrido[4,3-b][1,4]oxazin-3-one] |
| 6.5 | CC(C)(C)Cn1ccc(-c2ccc(C3CN(C(=O)N4CC[C@@H]5OCC(=O)N[C@@H]5C4)C3)cc2)n1 [Example 32b, (4aR,8aS)-6-[3-[4-[1-(2,2-Dimethylpropyl)pyrazol-3-yl]phenyl]azetidine-1-carbonyl]-4,4a,5,7,8,8a-hexahydropyrido[4,3-b][1,4]oxazin-3-one] |
| 2.7 | O=C1CO[C@H]2CCN(C(=O)N3CC(c4ccc(-c5ncccc5Cl)cc4)C3)C[C@H]2N1 [Example 33, (4aR,8aS)-6-[3-[4-(3-Chloro-2-pyridyl)phenyl]azetidine-1-carbonyl]-4,4a,5,7,8,8a-hexahydropyrido[4,3-b][1,4]oxazin-3-one] |
| 22.9 | Cc1nc(C)c(-c2ccc(C3CN(C(=O)N4CC[C@@H]5OCC(=O)N[C@@H]5C4)C3)cc2)o1 [Example 34, (4aR,8aS)-6-[3-[4-(2,4-Dimethyloxazol-5-yl)phenyl]azetidine-1-carbonyl]-4,4a,5,7,8,8a-hexahydropyrido[4,3-b][1,4]oxazin-3-one] |
| 17.4 | Cc1cc(C)n(-c2ccc(C3CN(C(=O)N4CC[C@@H]5OCC(=O)N[C@@H]5C4)C3)cc2)n1 [Example 35, (4aR,8aS)-6-[3-[4-(3,5-Dimethylpyrazol-1-yl)phenyl]azetidine-1-carbonyl]-4,4a,5,7,8,8a-hexahydropyrido[4,3-b][1,4]oxazin-3-one] |
| 0.9 | CC(C)(C)Cn1nncc1-c1ccc(C2CN(C(=O)N3CC[C@@H]4OCC(=O)N[C@@H]4C3)C2)cc1 [Example 36, (4aR, 8aS)-6-[3-[4-[3-(2,2-Dimethylpropyl)triazol-4-yl]phenyl]azetidine-1-carbonyl]-4,4a,5,7,8,8a-hexahydropyrido[4,3-b][1,4]oxazin-3-one] |
| 2.4 | CC(C)(C)Cc1nc(-c2ccc(C3CN(C(=O)N4CC[C@@H]5OCC(=O)N[C@@H]5C4)C3)cc2)no1 [Example 37, (4aR,8aS)-6-[3-[4-[5-(2,2-Dimethylpropyl)-1,2,4-oxadiazol-3-yl]phenyl]azetidine-1-carbonyl]-4,4a,5,7,8,8a-hexahydropyrido[4,3-b][1,4]oxazin-3-one] |
| 8.5 | CC(C)(C)Cc1nnc(-c2ccc(C3CN(C(=O)N4CC[C@@H]5OCC(=O)N[C@@H]5C4)C3)cc2)o1 [Example 38, (4aR,8aS)-6-[3-[4-[5-(2,2-Dimethylpropyl)-1,3,4-oxadiazol-2-yl]phenyl]azetidine-1-carbonyl]-4,4a,5,7,8,8a-hexahydropyrido[4,3-b][1,4]oxazin-3-one] |
| 6.7 | O=C1CO[C@H]2CCN(C(=O)N3CC(c4ccc(-c5ccnn5CCF)cc4)C3)C[C@H]2N1 [Example 39, (4aR,8aS)-6-[3-[4-[2-(2-Fluoroethyl)pyrazol-3-yl]phenyl]azetidine-1-carbonyl]-4,4a,5,7,8,8a-hexahydropyrido[4,3-b][1,4]oxazin-3-one] |
| 73.1 | O=C1CO[C@H]2CCN(C(=O)N3CC(c4ccc(-c5cnn(CCF)c5)cc4)C3)C[C@H]2N1 [Example 40, (4aR,8aS)-6-[3-[4-[1-(2-Fluoroethyl)pyrazol-4-yl]phenyl]azetidine-1-carbonyl]-4,4a,5,7,8,8a-hexahydropyrido[4,3-b][1,4]oxazin-3-one] |
| 24.6 | Cc1csc(-c2ccc(C3CN(C(=O)N4CC[C@@H]5OCC(=O)N[C@@H]5C4)C3)cc2)n1 [Example 41, (4aR,8aS)-6-[3-[4-(4-Methyl-1,3-thiazol-2-yl)phenyl]azetidine-1-carbonyl]-4,4a,5,7,8,8a-hexahydropyrido[4,3-b][1,4]oxazin-3-one] |
| 153 | Cn1ccc(-c2ccc(C3CN(C(=O)N4CC[C@@H]5OCC(=O)N[C@@H]5C4)C3)cc2)n1 [Example 42, (4aR,8aS)-6-[3-[4-(1-Methylpyrazol-3-yl)phenyl]azetidine-1-carbonyl]-4,4a,5,7,8,8a-hexahydropyrido[4,3-b][1,4]oxazin-3-one] |
| 19.3 | O=C1CO[C@H]2CCN(C(=O)N3CC(c4ccc(-c5ccc(F)nc5)cc4)C3)C[C@H]2N1 [Example 43, (4aR,8aS)-6-[3-[4-(6-Fluoropyridin-3-yl)phenyl]azetidine-1-carbonyl]-4,4a,5,7,8,8a-hexahydropyrido[4,3-b][1,4]oxazin-3-one] |
| 67.7 | O=C1CO[C@H]2CCN(C(=O)N3CC(c4ccc(-c5ccnc(F)c5)cc4)C3)C[C@H]2N1 [Example 44, (4aR,8aS)-6-[3-[4-(2-Fluoropyridin-4-yl)phenyl]azetidine-1-carbonyl]-4,4a,5,7,8,8a-hexahydropyrido[4,3-b][1,4]oxazin-3-one] |
| 134 | Cn1cc(-c2ccc(C3CN(C(=O)N4CC[C@@H]5OCC(=O)N[C@@H]5C4)C3)cc2)cn1 [Example 45, (4aR,8aS)-6-[3-[4-(1-Methylpyrazol-4-yl)phenyl]azetidine-1-carbonyl]-4,4a,5,7,8,8a-hexahydropyrido[4,3-b][1,4]oxazin-3-one] |
| 17.5 | Cn1nccc1-c1ccc(C2CN(C(=O)N3CC[C@@H]4OCC(=O)N[C@@H]4C3)C2)cc1 [Example 46, (4aR,8aS)-6-[3-[4-(2-Methylpyrazol-3-yl)phenyl]azetidine-1-carbonyl]-4,4a,5,7,8,8a-hexahydropyrido[4,3-b][1,4]oxazin-3-one] |
| 1.4 | O=C1CO[C@H]2CCN(C(=O)N3CC(c4ccc(Oc5ccc(F)cc5)cn4)C3)C[C@H]2N1 [Example 47, (4aR,8aS)-6-[3-[5-(4-Fluorophenoxy)-2-pyridyl]azetidine-1-carbonyl]-4,4a,5,7,8,8a-hexahydropyrido[4,3-b][1,4]oxazin-3-one] |
| 31.5 | O=C1CO[C@H]2CCN(C(=O)N3CC(c4ccc(Oc5ccc(F)cc5)nc4)C3)C[C@H]2N1 [Example 48, (4aR,8aS)-6-(3-(6-(4-Fluorophenoxy)pyridin-3-yl)azetidine-1-carbonyl)hexahydro-2H-pyrido[4,3-b][1,4]oxazin-3(4H)-one] |
